Data reported in patent US20200392150A1, “Diaryl-B-Lactam Compound and Preparation Method and Pharmaceutical Use Thereof” (Fudan University, priority 2016, published 2020).
Entries after “also recorded” stand apart in the source; their conditions may differ. Read-outs that look alike come from different tables or passages of the source.

Key:
[1] = system: VEGF induced angiogenesis; test: Matrigel plug assay; format: in vivo, Balb/C nude mice; conditions: nude mice, s.c. matrigel with 100 ng/mL VEGF-A165, 2 weeks
Protocol: 6 weeks old female Balb/C nude mice were purchased from Shanghai Slac Laboratory Animal Co. Ltd. (Shanghai, China). Matrigel containing 100 ng/mL human recombinant VEGF-A165 (Peprotech, Rocky Hill, N.J.) were mixed with indicated concentrations of 69, 70 and 97, or diluent (0.2% DMSO) as negative control at 4° C. Then, 0.5 mL of the matrigel mixture per mouse was injected subcutaneously into nude mice (n=4) in the dorsal region to generate matrigel plugs. 2 weeks later, the mice were sacrificed and matrigel plugs were recovered. Representative data from three independent experiments were shown.

[2] = system: MDA-MB-231 cells; test: Colony formation assay; format: cell-based, human; conditions: 48 h treatment, 7-10 days growth
Protocol: 1000 MDA-MB-231 cells per well were seeded into 6-well plate at a single cell density and were cultured at 37° C. for 48 h. After being treated with indicated concentrations of 69, 70 and 97, CA-4 as positive control, or diluent (0.2% DMSO) as negative control for 48 h, the agents containing medium was replaced by fresh medium to allow cell growth for additional 7-10 days. Then the cells were fixed with methanol and stained with gentian violet for 30 min.
The number of colonies which consisted of more than 50 cells were counted. The results were indicated as mean values from three independent determinations.

[3] = system: Hela cells; test: Cell cycle analysis; format: cell-based, human; conditions: 24 h
Protocol: 2*10^5 Hela cells per well were seeded into six-well plate and allowed to adhere overnight at 37° C. After treatment with indicated concentrations of 69, 70 and 97, CA-4 as positive control or diluent (0.2% DMSO) as negative control for 24 h, cells were harvested, washed twice with PBS and fixed with 75% ethanol at −20° C. overnight. Then cells were stained with propidium iodide dye (BD Biosciences) for 15 min in dark conditions at room temperature, followed by subjected to flow cytometry (Cytomics FC 500MPL, Beckman Coulter) detection. The results were analyzed by Multicycle AV (for Windows, version 320) software and indicated as mean values from three independent determinations.

[4] = system: tubulin in Hela cells; test: Immunoblotting analysis of polymerized/depolymerized tubulin; format: cell-based, human; conditions: 6 h
Protocol: After being treated with diluent (0.2% DMSO), tested compound, CA-4 or PTX for 6 h, Hela cells were lysed with microtubulestabilizing buffer, containing 100 mM PIPES, pH 6.8, 1 mM MgCl2, 2 mM EGTA, 0.5% NP-40, 2 M glycerol, 5 μM PTX and protease inhibitors cocktail (Roche), and the lysate was centrifuged at 15,000 rpm for 15 min. Supernatant containing depolymerized tubulin was carefully collected, whereas pellet (polymerized tubulin) was further dissolved in SDS-lysis buffer (Beyotime, China). Equal amounts of supernatant and dissolved pellet were subjected to immunoblotting analysis as described above using atubulin antibody (Proteintech).

[5] = system: A2780 cells xenograft; test: Xenografts tumor growth assay in nude mice; format: in vivo, Balb/c nude mice; conditions: i.p. once every 2 days, 69 7.5 mg/kg, 70 12.5 mg/kg, 97 4 or 8 mg/kg
Protocol: 6 weeks old female Balb/c nude mice were purchased from Shanghai Slac Laboratory Animal Co. Ltd. (Shanghai, China). 2*10^6 A2780 cells suspended in 0.2 mL PBS per mouse was injected subcutaneously into the nude mice. […] Administration of agents or vehicle, or agents and measurement of tumor volumes with a digital caliper was done once every 2 days. Tumor volumes were calculated as volume=shortest diameter (W)^2*longest diameter (L)*0.52. When the average tumor volumes of vehicle treated group reached 2000 mm^3 in diameter, the mice were sacrificed and the tumors were isolated and weighed. Visceral organs of the mice as well as solid tumors were further analyzed by H&E staining.

[6] = system: tubulin in SKOV-3 cells; test: Immunofluorescent analysis of tubulin morphology; format: cell-based, human; conditions: 24 h
Protocol: After treatment with diluent (0.2% DMSO) or tested compounds at indicated concentrations for 24 h, SKOV-3 cells were fixed with methanol, permeabilized with 0.1% Triton X-100 in PBS and blocked by goat serum. Then the cells were incubated with a-tubulin antibody at 4° C. overnight, followed by incubation with Alexa 488 labeled secondary antibody (Jackson ImmunoResearch) at RT for 1 h. After being stained with DAPI, cells were examined and photographed with a Leica SP5 co-focal fluorescence microscope.

[7] = system: human umbilical veinendothelial cells (HUVECs); test: Capillary-like tube formation assay; format: cell-based; conditions: HUVECs on matrigel, 12 h
Protocol: […] matrigel (Corning) per well was added to 96-well plate and pre-incubated at 37° C. for 1 h for gelation. 3*10^4 human umbilical veinendothelial cells (HUVECs) in […] medium per well containing indicated concentrations of 69, 70 and 97, CA-4 as positive control, or diluent (0.2% DMSO) as negative control, respectively, were seeded to 96-well plates on the matrigel layer, followed by continual incubation at 37° C. for 12 h to allow capillary-like tube formation. Images were captured with a CCD Sensicam camera mounted on an Olympus inverted microscope. Representative data from three independent experiments were shown.

[8] = target: T1, Pig brain tubulin (Sus scrofa, UniProt P02550+P02554); test: In vitro tubulin polymerization assay; format: biochemical
T1 construct: purchased; host or cells: pig brain
T1 sequence (P02554 whole entry): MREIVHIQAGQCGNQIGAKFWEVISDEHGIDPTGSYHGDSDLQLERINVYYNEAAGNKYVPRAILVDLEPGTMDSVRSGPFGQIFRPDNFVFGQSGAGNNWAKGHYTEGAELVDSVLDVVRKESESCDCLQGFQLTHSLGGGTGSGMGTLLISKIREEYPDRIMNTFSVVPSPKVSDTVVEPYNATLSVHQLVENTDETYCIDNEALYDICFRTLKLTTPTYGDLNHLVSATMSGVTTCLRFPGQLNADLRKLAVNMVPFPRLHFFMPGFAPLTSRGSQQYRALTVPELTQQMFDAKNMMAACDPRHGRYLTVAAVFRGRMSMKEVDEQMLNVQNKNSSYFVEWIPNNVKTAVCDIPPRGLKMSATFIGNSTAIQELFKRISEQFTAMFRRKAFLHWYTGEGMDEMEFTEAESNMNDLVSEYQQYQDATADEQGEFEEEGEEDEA
T1 sequence (P02550 whole entry): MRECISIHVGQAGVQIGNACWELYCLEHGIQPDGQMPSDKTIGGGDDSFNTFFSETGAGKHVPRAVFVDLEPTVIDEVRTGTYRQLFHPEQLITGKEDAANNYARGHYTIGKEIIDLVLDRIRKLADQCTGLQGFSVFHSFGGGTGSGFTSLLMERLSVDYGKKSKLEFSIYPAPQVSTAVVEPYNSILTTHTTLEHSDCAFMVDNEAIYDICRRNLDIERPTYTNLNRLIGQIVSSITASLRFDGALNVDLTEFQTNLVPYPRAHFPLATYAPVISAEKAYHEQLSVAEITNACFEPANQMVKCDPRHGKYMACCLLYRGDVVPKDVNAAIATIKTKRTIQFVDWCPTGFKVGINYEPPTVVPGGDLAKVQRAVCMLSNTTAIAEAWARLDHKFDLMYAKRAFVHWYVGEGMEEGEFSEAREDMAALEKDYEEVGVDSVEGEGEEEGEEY
Protocol: In vitro tubulin polymerization assay Pig brain tubulin was obtained commercially and stored in aliquots at −70° C. […] The absorbance of wavelength at 340 nm was detected every 1 min for 20 min by Spectra Max 190 spectrophotometer (Molecular Device) at 37° C. The results were indicated as mean values from three independent determinations.

[9] = system: Bax, p53 and cleaved-PARP in HeLa cells; test: Expression level of apoptosis associated proteins; format: cell-based, human; conditions: western blotting and qPCR
Protocol: A. Western blotting: After being treated with candidate compound, cells were harvested and lysed. Then, the lysate was isolated by ultracentrifuge and quantified by BCA assay according to the protocol. After being denatured, equivalent protein of each sample was separated by SDSPAGE gel and wet-transferred onto 0.22 μm nitrocellulose membrane. After being blocked by PBS containing 5% skim milk, the membrane was incubated with primary antibody at 4° C. overnight and secondary antibody at room temperature for 2 h and then visualized by enhanced chemiluminescence kit (Thermo Fisher, USA), sequentially.
B. Quantitative PCR assay: HeLa cells were treated with 69, 70 or 97. The expression level of mRNA of target proteins was tested with qPCR kit (Takara).

With `COc1ccc([C@H]2[C@@H](C)C(=O)N2c2cc(OC)c(OC)c(OC)c2)cc1O` [Compound 70, (3R,4R)-4-(3-hydroxy-4-methoxyphenyl)-3-methyl-1-(3,4,5-trimethoxyphenyl)azetidin-2-one] the “VEGF induced angiogenesis in matrigel plugs” value (from here on “VEGF induced angiogenesis”) [1] was “significantly inhibit VEGF-mediated neovascularization; also recorded: suppressed VEGF induced angiogenesis”, the colony formation [2] was “significantly inhibit the formation of colonies; also recorded: dose-dependently reduced” and the “cell cycle arrest (G2/M, mitotic arrest)” value [3] was “significantly arrest cells in the G2/M phase; also recorded: significantly induce cellular mitotic arrest”. The “polymerized tubulin (immunoblotting)” value [4] was “significantly inhibit tubulin aggregation; also recorded: dramatically reduction of polymerized tubulin”, the “H&E staining of liver, kidney and spleen” value [5] was “no abnormal areas are observed in tissue staining of liver, kidney and spleen; also recorded: no detectable abnormalities were observed in liver, kidney and spleen” and the “H&E staining of tumor sections” value [5] was “cause tumor tissue to produce necrotic areas; also recorded: extensive areas of necrosis or cell death”. For the same compound, the mouse body weight [5] was “no significant influence on mouse body weight; also recorded: no significant weight loss observed”, the “tumor growth in vivo” value [5] was “significantly inhibit tumor growth in vivo; also recorded: anti-tumor activities in vivo” and the “tubulin assembly (immunofluorescence)” value [6] was “significantly inhibit tubulin aggregation; also recorded: strongly inhibit tubulin assembly”. The capillary-like tube formation [7] was “significantly inhibit the formation of capillary-like structures; also recorded: almost completely disrupted the capillary-like tube formation”, the IC50 [8] was 1700 nM and the “expression of Bax, p53 and cleaved-PARP” value [9] was “significantly promote the expression of the proapoptotic protein Bax, the tumor suppressor gene p53, and the cleaved DNA repair enzyme; also recorded: significantly induce the expression of Bax, p53 and cleaved-PARP”.

With `COc1ccc([C@H]2[C@H](CO)C(=O)N2c2cc(OC)c(OC)c(OC)c2)cc1O` [Compound 69, (3R,4R)-4-(3-hydroxy-4-methoxyphenyl)-3-(hydroxymethyl)-1-(3,4,5-trimethoxyphenyl)azetidin-2-one] the “VEGF induced angiogenesis” value [1] was “significantly inhibit VEGF-mediated neovascularization; also recorded: suppressed VEGF induced angiogenesis”, the colony formation [2] was “significantly inhibit the formation of colonies; also recorded: dose-dependently reduced” and the “cell cycle arrest (G2/M, mitotic arrest)” value [3] was “significantly arrest cells in the G2/M phase; also recorded: significantly induce cellular mitotic arrest”. For the same compound, the “polymerized tubulin (immunoblotting)” value [4] was “significantly inhibit tubulin aggregation; also recorded: dramatically reduction of polymerized tubulin”, the “H&E staining of liver, kidney and spleen” value [5] was “no abnormal areas are observed in tissue staining of liver, kidney and spleen; also recorded: no detectable abnormalities were observed in liver, kidney and spleen” and the “H&E staining of tumor sections” value [5] was “cause tumor tissue to produce necrotic areas; also recorded: extensive areas of necrosis or cell death”. The mouse body weight [5] was “no significant influence on mouse body weight; also recorded: no significant weight loss observed”, the “tumor growth in vivo” value [5] was “significantly inhibit tumor growth in vivo; also recorded: anti-tumor activities in vivo” and the “tubulin assembly (immunofluorescence)” value [6] was “significantly inhibit tubulin aggregation; also recorded: strongly inhibit tubulin assembly”. For the same compound, the capillary-like tube formation [7] was “significantly inhibit the formation of capillary-like structures; also recorded: almost completely disrupted the capillary-like tube formation”, the IC50 [8] was 3500 nM and the “expression of Bax, p53 and cleaved-PARP” value [9] was “significantly promote the expression of the proapoptotic protein Bax, the tumor suppressor gene p53, and the cleaved DNA repair enzyme; also recorded: significantly induce the expression of Bax, p53 and cleaved-PARP”.

For `COc1ccc([C@H]2[C@H](C)C(=O)N2c2cc(OC)c(OC)c(OC)c2)cc1O` [Compound 97, (3S,4R)-4-(3-hydroxy-4-methoxyphenyl)-3-methyl-1-(3,4,5-trimethoxyphenyl)azetidin-2-one], the “VEGF induced angiogenesis” value [1] was “significantly inhibit VEGF-mediated neovascularization; also recorded: suppressed VEGF induced angiogenesis”, the colony formation [2] was “significantly inhibit the formation of colonies; also recorded: dose-dependently reduced” and the “cell cycle arrest (G2/M, mitotic arrest)” value [3] was “significantly arrest cells in the G2/M phase; also recorded: significantly induce cellular mitotic arrest”. The “polymerized tubulin (immunoblotting)” value [4] was “significantly inhibit tubulin aggregation; also recorded: dramatically reduction of polymerized tubulin”, the “H&E staining of liver, kidney and spleen” value [5] was “no abnormal areas are observed in tissue staining of liver, kidney and spleen; also recorded: no detectable abnormalities were observed in liver, kidney and spleen” and the “H&E staining of tumor sections” value [5] was “cause tumor tissue to produce necrotic areas; also recorded: extensive areas of necrosis or cell death”. The mouse body weight [5] was “no significant influence on mouse body weight; also recorded: no significant weight loss observed”, the “tumor growth in vivo” value [5] was “significantly inhibit tumor growth in vivo; also recorded: anti-tumor activities in vivo” and the “tubulin assembly (immunofluorescence)” value [6] was “significantly inhibit tubulin aggregation; also recorded: strongly inhibit tubulin assembly”. For the same compound, the capillary-like tube formation [7] was “significantly inhibit the formation of capillary-like structures; also recorded: almost completely disrupted the capillary-like tube formation”, the IC50 ([8]; pig brain tubulin, absorbance 340 nm, 20 min, 37° C., read-out: IC50 disruption of tubulin assembly) was 1600 nM and the “expression of Bax, p53 and cleaved-PARP” value [9] was “significantly promote the expression of the proapoptotic protein Bax, the tumor suppressor gene p53, and the cleaved DNA repair enzyme; also recorded: significantly induce the expression of Bax, p53 and cleaved-PARP”.
